The record followed here is ChEMBL document CHEMBL1146350, “Synthesis of some new bioactive 3-amino-2-mercapto-5,6,7,8-tetrahydro[1]benzothieno[2,3-d]pyrimidin-4(3H)-one derivatives” (2007).

Values after ≈ are worked out from the molar mass of the structure shown. Active and inactive are the calls of the source. The calls are words filed in the database; no cut-off is given here.

Assay [1] concerns Mus musculus. Put plainly: Anticonvulsant activity in Swiss Albino mouse assessed as latency period at 50 mg/kg, po by PTZ induced seizure test. The class given is functional, organism-based. Set-up: dose 50 mg/kg.
Assay [2] has as its system Mus musculus. Kind of assay: Antianxiety study in Swiss Albino mouse assessed as ratio of number of entreis in open arm to total entries at 50 mg/kg by elevated plus maze test. It is filed as functional.
The test system of assay [3] is Mus musculus. Kind of assay: Antianxiety study in Swiss Albino mouse assessed as time spent in close arm at 50 mg/kg by elevated plus maze model. The class given is functional.
Assay [4] deals with Mus musculus. Put plainly: Anticonvulsant activity in Swiss Albino mouse assessed as duration of seizure at 50 mg/kg, po by PTZ induced seizure test. It is filed as functional.
Another assay concerns Escherichia coli. Put plainly: Antibacterial activity against Escherichia coli ATCC 25922 by disc diffusion method. The class given is functional. Particulars: for MIC: Escherichia coli, ATCC 25922.
The species named for assay [5] is Mus musculus. Kind of assay: Effect on learning and memory in Swiss Albino mouse assessed as latent period on second day. The class given is functional.
Another assay has as its system Staphylococcus aureus. Kind of assay: Antibacterial activity against Staphylococcus aureus ATCC 25923 by disc diffusion method. It is filed as functional. Conditions: for MIC: Staphylococcus aureus, ATCC 25923, read-out: MIC.
Assay [6] concerns Rattus norvegicus. Kind of assay: Antiinflammatory activity in Wister Albino rat assessed as inhibition of paw edema at 50 mg/kg, po after 3hrs. The class given is functional.
In assay [7] the test system is Mus musculus. Kind of assay: Anticonvulsant activity in Swiss Albino mouse assessed as mortality at 50 mg/kg, po by PTZ induced seizure test. The class given is functional, organism-based. Set-up: dose 50 mg/kg.
Another assay relates to Aspergillus fumigatus. Put plainly: Antifungal activity against Aspergillus fumigatus NCIM 902 by serial plate dilution method. The class given is functional. Particulars: for MIC: Aspergillus fumigatus, NCIM 902.
Another assay relates to Talaromyces marneffei. Put plainly: Antifungal activity against Penicillium marneffei by serial plate dilution method. The class given is functional. Conditions: for MIC: Talaromyces marneffei.
Assay [8] has as its system Mus musculus. Put plainly: Anticonvulsant activity in Swiss Albino mouse assessed as duration of seizure at 2 mg/kg, po by PTZ induced seizure test. It is filed as functional.
Assay [9] concerns Mus musculus. Kind of assay: Antianxiety study in Swiss Albino mouse assessed as time spent in open arm at 50 mg/kg by elevated plus maze model. The class given is functional.
For assay [10], the system named is Mus musculus. Kind of assay: Effect on coordination in Swiss Albino mouse at 50 mg/kg by rotarod accelorod test. It is filed as functional.
In the next assay the test system is Klebsiella pneumoniae. Put plainly: Antibacterial activity against Klebsiella pneumoniae by disc diffusion method. Conditions: for MIC: Klebsiella pneumoniae. The class given is functional.
Assay [11] is filed under the species Mus musculus. Put plainly: Effect on learning and memory in Swiss Albino mouse assessed as latent period on first day. It is filed as functional.
In a further assay the test system is Aspergillus flavus. Kind of assay: Antifungal activity against Aspergillus flavus NCIM 524 by serial plate dilution method. Conditions: for MIC: Aspergillus flavus, NCIM 524. The class given is functional.
Another assay has as its system Trichophyton benhamiae. Kind of assay: Antifungal activity against Trichophyton mentagrophytes by serial plate dilution method. It is filed as functional, Arthroderma benhamiae. Conditions: for MIC: Trichophyton benhamiae.
Another assay concerns Pseudomonas aeruginosa. Put plainly: Antibacterial activity against Pseudomonas aeruginosa ATCC 27853 by disc diffusion method. The class given is functional. Particulars: for MIC: Pseudomonas aeruginosa, ATCC 27853.
In assay [12] the test system is Rattus norvegicus. Kind of assay: Antiinflammatory activity in Wister Albino rat assessed as inhibition of paw edema at 1.5 mg/kg, po after 3hrs. It is filed as functional.

As for `CN1C(=O)CN=C(c2ccccc2)c2cc(Cl)ccc21`, the outcome in the assay on Mus musculus [1] was Active.
For the compound `Cc1cc(C)cc(-c2nn3c(=O)c4c5c(sc4nc3s2)CCCC5)c1`, the Activity with Mus musculus [2] was 7.14%; in the assay with Mus musculus [3], 231 s; with Mus musculus [4], 0 s; in the assay filed under Mus musculus [5], 18 s; in the assay with Mus musculus [8], 68 s; in the assay with Mus musculus [9], 56 s. Also, the Activity was 256 s with Mus musculus [10] and 34 s in the assay listed under Mus musculus [11]. Moreover, the “inhibition zone (IZ)” value in the assay with Escherichia coli was 16 mm; with Staphylococcus aureus, 8 mm; in the assay on Aspergillus fumigatus, 18 mm; with Talaromyces marneffei it was 18 mm; in the assay with Klebsiella pneumoniae it was 20 mm; in the assay with Aspergillus flavus it was 7 mm. Also, the “inhibition zone (IZ)” value in the assay with Trichophyton benhamiae is listed as 9 mm; with Pseudomonas aeruginosa it was 18 mm. Besides, the MIC with Escherichia coli was 60 µg/mL (≈ 163 µM); in the assay with Staphylococcus aureus, more than 100 µg/mL; with Aspergillus fumigatus, 12.5 µg/mL (≈ 34 µM); in the assay on Talaromyces marneffei, 12.5 µg/mL (≈ 34 µM); against Klebsiella pneumoniae, 10 µg/mL (≈ 27.2 µM); against Aspergillus flavus, more than 100 µg/mL. For the same compound, the minimum inhibitory concentration (MIC) against Trichophyton benhamiae was found to be 80 µg/mL (≈ 218 µM); against Pseudomonas aeruginosa, 60 µg/mL (≈ 163 µM). Also, in the assay with Rattus norvegicus [6], the inhibition in vivo at 50 mg/kg was 31.1%. In the assay on Mus musculus [7], the result was Active.
For the compound `O=c1c2c3c(sc2nc2sc(-c4ccccc4)nn12)CCCC3`, the Activity in the assay with Mus musculus [4] came to 65 s; with Mus musculus [8], 58 s. Besides, the “inhibition zone (IZ)” value in the assay on Escherichia coli worked out at 9 mm; in the assay with Staphylococcus aureus it was 18 mm; with Aspergillus fumigatus, 18 mm; with Talaromyces marneffei it was 16 mm; in the assay with Klebsiella pneumoniae it was 16 mm; in the assay on Aspergillus flavus it was 7 mm. In addition, the “inhibition zone (IZ)” value in the assay on Trichophyton benhamiae was 7 mm; with Pseudomonas aeruginosa it was 18 mm. In addition, the minimum inhibitory concentration (MIC) is 100 µg/mL (≈ 295 µM) against Escherichia coli; 60 µg/mL (≈ 177 µM) in the assay on Staphylococcus aureus; 12.5 µg/mL (≈ 36.8 µM) in the assay with Aspergillus fumigatus; 12.5 µg/mL (≈ 36.8 µM) against Talaromyces marneffei; 60 µg/mL (≈ 177 µM) with Klebsiella pneumoniae; more than 100 µg/mL with Aspergillus flavus. Moreover, the MIC in the assay on Trichophyton benhamiae is more than 100 µg/mL; against Pseudomonas aeruginosa, 60 µg/mL (≈ 177 µM). Further, the inhibition in vivo at 50 mg/kg with Rattus norvegicus [6] worked out at 24.4%. Moreover, the outcome in the assay on Mus musculus [7] was inactive.
Turning to `Cc1cccc(-c2nn3c(=O)c4c5c(sc4nc3s2)CCCC5)c1`, the Activity is 220 s with Mus musculus [4] and 51 s in the assay with Mus musculus [8]. In addition, the “inhibition zone (IZ)” value in the assay with Escherichia coli is recorded as 8 mm; in the assay with Staphylococcus aureus, 20 mm; in the assay with Aspergillus fumigatus, 18 mm; in the assay with Talaromyces marneffei, 18 mm; in the assay on Klebsiella pneumoniae, 10 mm; with Aspergillus flavus, 6 mm. Also, the “inhibition zone (IZ)” value with Trichophyton benhamiae was found to be 4 mm; in the assay on Pseudomonas aeruginosa, 20 mm. For the same compound, the MIC against Escherichia coli was more than 100 µg/mL; with Staphylococcus aureus, 10 µg/mL (≈ 28.3 µM); with Aspergillus fumigatus, 12.5 µg/mL (≈ 35.4 µM); in the assay with Talaromyces marneffei, 12.5 µg/mL (≈ 35.4 µM); against Klebsiella pneumoniae it was 80 µg/mL (≈ 226 µM); in the assay with Aspergillus flavus, more than 100 µg/mL. The results for the MIC against Trichophyton benhamiae and against Pseudomonas aeruginosa were more than 100 µg/mL and 10 µg/mL (≈ 28.3 µM), respectively. Further, the inhibition in vivo at 50 mg/kg in the assay with Rattus norvegicus [6] is 51.1%. Also, the outcome in the assay on Mus musculus [7] was inactive.
Take `Nn1c(SCC(=O)c2cc3ccccc3oc2=O)nc2sc3c(c2c1=O)CCCC3`: the Activity in the assay with Mus musculus [4] was 30 s; in the assay on Mus musculus [8], 56 s. Further, the “inhibition zone (IZ)” value with Escherichia coli is 18 mm; in the assay with Staphylococcus aureus it was 22 mm; in the assay on Aspergillus fumigatus, 8 mm; in the assay on Talaromyces marneffei, 6 mm; in the assay with Klebsiella pneumoniae it was 22 mm; with Aspergillus flavus, 12 mm. Also, the “inhibition zone (IZ)” value in the assay on Trichophyton benhamiae and with Pseudomonas aeruginosa was 8 mm each time. For the same compound, the MIC against Escherichia coli was 12.5 µg/mL (≈ 28.4 µM); with Staphylococcus aureus, 6.25 µg/mL (≈ 14.2 µM); with Aspergillus fumigatus, more than 100 µg/mL; with Talaromyces marneffei it was more than 100 µg/mL; with Klebsiella pneumoniae, less than 6.25 µg/mL; against Aspergillus flavus it was 80 µg/mL (≈ 182 µM). Besides, the minimum inhibitory concentration (MIC) against Trichophyton benhamiae and in the assay with Pseudomonas aeruginosa was more than 100 µg/mL each time. The inhibition in vivo at 50 mg/kg with Rattus norvegicus [6] was determined as 6.67%. Also, the result with Mus musculus [7] was inactive.
With `Cc1nn2c(=O)c3c4c(sc3nc2s1)CCCC4`, the Activity with Mus musculus [2] came to 16.67%; in the assay on Mus musculus [3], 285 s; in the assay on Mus musculus [4], 0 s; in the assay listed under Mus musculus [5] it was 25 s; with Mus musculus [8], 3600 s; in the assay on Mus musculus [9], 4 s. Moreover, the values for the Activity with Mus musculus [10] and in the assay listed under Mus musculus [11] were 284 s and 39 s, respectively. In addition, the “inhibition zone (IZ)” value with Escherichia coli stood at 18 mm; in the assay on Staphylococcus aureus, 20 mm; in the assay with Aspergillus fumigatus, 16 mm; in the assay on Talaromyces marneffei, 16 mm; in the assay with Klebsiella pneumoniae it was 20 mm; in the assay with Aspergillus flavus, 12 mm. The “inhibition zone (IZ)” value in the assay on Trichophyton benhamiae was 7 mm; with Pseudomonas aeruginosa, 22 mm. Also, the MIC was 10 µg/mL (≈ 36.1 µM) in the assay on Escherichia coli; 10 µg/mL (≈ 36.1 µM) in the assay with Staphylococcus aureus; 12.5 µg/mL (≈ 45.1 µM) against Aspergillus fumigatus; 12.5 µg/mL (≈ 45.1 µM) in the assay on Talaromyces marneffei; 10 µg/mL (≈ 36.1 µM) in the assay with Klebsiella pneumoniae; 80 µg/mL (≈ 288 µM) in the assay with Aspergillus flavus. Also, the MIC is more than 100 µg/mL against Trichophyton benhamiae and 6.25 µg/mL (≈ 22.5 µM) in the assay with Pseudomonas aeruginosa. In the assay with Rattus norvegicus [6], the inhibition in vivo at 50 mg/kg stood at 34.6%. Besides, in the assay on Mus musculus [7], the outcome was Active.
Regarding `O=c1c2c3c(sc2nc2sc(-c4ccc([N+](=O)[O-])cc4)nn12)CCCC3`, the Activity in the assay on Mus musculus [4] came out at 40 s; in the assay with Mus musculus [8], 56 s. Further, the “inhibition zone (IZ)” value in the assay with Escherichia coli is listed as 8 mm; in the assay with Staphylococcus aureus, 8 mm; with Aspergillus fumigatus it was 5 mm; with Talaromyces marneffei it was 6 mm; with Klebsiella pneumoniae, 20 mm; in the assay with Aspergillus flavus it was 10 mm. Further, the entries for the “inhibition zone (IZ)” value in the assay on Trichophyton benhamiae and in the assay with Pseudomonas aeruginosa were 6 mm and 9 mm, respectively. Further, the MIC against Escherichia coli is more than 100 µg/mL; with Staphylococcus aureus, more than 100 µg/mL; in the assay on Aspergillus fumigatus it was more than 100 µg/mL; in the assay on Talaromyces marneffei it was more than 100 µg/mL; in the assay on Klebsiella pneumoniae, 10 µg/mL (≈ 26 µM); in the assay on Aspergillus flavus it was 80 µg/mL (≈ 208 µM). In addition, the MIC with Trichophyton benhamiae is more than 100 µg/mL; against Pseudomonas aeruginosa, 100 µg/mL (≈ 260 µM). Also, in the assay with Rattus norvegicus [6], the inhibition in vivo at 50 mg/kg came out at 48.9%. In addition, the result in the assay on Mus musculus [7] was inactive.
As to `COc1ccc2c(c1)c(CC(=O)O)c(C)n2C(=O)c1ccc(Cl)cc1` [INDOMETHACIN], the inhibition in vivo at 1.5 mg/kg in the assay with Rattus norvegicus [12] was 53.3%.
